{"source": "the kinase profiling compilation of Christmann-Franck et al. (2016)", "details_in_all_cases": "compound 10.0 µM", "key": {"EIF2AK1 (human)": {"biological_target": "EIF2AK1 (human) (UniProt Q9BQI3)"}, "BLK (human)": {"biological_target": "BLK (human) (UniProt P51451)", "sequence (P51451 whole entry, looked up)": "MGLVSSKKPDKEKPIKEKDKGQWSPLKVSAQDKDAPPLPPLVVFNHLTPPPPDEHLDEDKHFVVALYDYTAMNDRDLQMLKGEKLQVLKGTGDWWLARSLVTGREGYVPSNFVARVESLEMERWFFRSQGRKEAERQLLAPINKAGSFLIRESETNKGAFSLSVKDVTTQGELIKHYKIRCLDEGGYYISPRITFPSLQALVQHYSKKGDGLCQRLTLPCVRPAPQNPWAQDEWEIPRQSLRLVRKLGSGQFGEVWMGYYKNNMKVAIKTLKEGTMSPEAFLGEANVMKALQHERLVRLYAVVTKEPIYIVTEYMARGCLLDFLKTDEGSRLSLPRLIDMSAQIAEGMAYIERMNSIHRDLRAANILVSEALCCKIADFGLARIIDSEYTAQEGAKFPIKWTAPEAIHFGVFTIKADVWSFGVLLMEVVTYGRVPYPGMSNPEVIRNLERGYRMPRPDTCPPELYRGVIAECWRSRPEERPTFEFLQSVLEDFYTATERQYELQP"}, "ERBB4 (human)": {"biological_target": "ERBB4 (human) (UniProt Q15303)", "sequence (Q15303 whole entry, looked up)": "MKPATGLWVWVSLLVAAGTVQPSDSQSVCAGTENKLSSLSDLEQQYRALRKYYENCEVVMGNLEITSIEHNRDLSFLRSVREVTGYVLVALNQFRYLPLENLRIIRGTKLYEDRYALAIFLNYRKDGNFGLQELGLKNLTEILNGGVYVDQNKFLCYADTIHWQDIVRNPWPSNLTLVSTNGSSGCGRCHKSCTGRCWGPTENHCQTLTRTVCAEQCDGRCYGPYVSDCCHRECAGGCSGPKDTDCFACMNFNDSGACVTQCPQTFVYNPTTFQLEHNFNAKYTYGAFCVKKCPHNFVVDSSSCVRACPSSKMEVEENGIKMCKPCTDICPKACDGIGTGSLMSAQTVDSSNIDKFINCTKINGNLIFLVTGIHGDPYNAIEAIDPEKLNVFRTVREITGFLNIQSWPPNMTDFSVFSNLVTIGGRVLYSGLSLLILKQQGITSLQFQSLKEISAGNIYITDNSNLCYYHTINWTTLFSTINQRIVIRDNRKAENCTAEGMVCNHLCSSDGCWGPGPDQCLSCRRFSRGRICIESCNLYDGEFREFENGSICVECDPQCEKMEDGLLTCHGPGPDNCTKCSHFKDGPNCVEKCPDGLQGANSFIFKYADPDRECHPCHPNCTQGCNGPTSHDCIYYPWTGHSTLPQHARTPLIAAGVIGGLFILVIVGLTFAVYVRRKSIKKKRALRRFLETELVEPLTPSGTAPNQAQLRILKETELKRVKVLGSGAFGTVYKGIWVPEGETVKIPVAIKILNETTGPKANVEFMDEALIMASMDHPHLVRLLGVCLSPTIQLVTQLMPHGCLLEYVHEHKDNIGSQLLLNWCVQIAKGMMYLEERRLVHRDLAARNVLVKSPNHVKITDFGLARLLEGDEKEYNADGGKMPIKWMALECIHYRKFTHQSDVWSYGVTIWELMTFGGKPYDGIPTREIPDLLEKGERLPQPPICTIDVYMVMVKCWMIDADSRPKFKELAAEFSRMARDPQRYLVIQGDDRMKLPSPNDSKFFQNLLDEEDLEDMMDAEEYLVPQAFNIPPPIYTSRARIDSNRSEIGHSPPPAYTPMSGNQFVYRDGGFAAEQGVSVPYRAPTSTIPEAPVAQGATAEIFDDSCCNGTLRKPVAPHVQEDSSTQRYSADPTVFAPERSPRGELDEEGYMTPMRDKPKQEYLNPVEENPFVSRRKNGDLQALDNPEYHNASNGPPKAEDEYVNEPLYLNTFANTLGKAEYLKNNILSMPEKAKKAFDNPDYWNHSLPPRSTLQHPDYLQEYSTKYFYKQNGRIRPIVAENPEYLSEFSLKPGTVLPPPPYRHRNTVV"}, "PKN3 (M.tuberculosis)": {"biological_target": "PKN3 (M.tuberculosis) (UniProt Q6P5Z2)"}, "MAP3K10 (human)": {"biological_target": "MAP3K10 (human) (UniProt Q02779)"}, "IGF1R (human)": {"biological_target": "IGF1R (human) (UniProt P08069)", "sequence (P08069 whole entry, looked up)": "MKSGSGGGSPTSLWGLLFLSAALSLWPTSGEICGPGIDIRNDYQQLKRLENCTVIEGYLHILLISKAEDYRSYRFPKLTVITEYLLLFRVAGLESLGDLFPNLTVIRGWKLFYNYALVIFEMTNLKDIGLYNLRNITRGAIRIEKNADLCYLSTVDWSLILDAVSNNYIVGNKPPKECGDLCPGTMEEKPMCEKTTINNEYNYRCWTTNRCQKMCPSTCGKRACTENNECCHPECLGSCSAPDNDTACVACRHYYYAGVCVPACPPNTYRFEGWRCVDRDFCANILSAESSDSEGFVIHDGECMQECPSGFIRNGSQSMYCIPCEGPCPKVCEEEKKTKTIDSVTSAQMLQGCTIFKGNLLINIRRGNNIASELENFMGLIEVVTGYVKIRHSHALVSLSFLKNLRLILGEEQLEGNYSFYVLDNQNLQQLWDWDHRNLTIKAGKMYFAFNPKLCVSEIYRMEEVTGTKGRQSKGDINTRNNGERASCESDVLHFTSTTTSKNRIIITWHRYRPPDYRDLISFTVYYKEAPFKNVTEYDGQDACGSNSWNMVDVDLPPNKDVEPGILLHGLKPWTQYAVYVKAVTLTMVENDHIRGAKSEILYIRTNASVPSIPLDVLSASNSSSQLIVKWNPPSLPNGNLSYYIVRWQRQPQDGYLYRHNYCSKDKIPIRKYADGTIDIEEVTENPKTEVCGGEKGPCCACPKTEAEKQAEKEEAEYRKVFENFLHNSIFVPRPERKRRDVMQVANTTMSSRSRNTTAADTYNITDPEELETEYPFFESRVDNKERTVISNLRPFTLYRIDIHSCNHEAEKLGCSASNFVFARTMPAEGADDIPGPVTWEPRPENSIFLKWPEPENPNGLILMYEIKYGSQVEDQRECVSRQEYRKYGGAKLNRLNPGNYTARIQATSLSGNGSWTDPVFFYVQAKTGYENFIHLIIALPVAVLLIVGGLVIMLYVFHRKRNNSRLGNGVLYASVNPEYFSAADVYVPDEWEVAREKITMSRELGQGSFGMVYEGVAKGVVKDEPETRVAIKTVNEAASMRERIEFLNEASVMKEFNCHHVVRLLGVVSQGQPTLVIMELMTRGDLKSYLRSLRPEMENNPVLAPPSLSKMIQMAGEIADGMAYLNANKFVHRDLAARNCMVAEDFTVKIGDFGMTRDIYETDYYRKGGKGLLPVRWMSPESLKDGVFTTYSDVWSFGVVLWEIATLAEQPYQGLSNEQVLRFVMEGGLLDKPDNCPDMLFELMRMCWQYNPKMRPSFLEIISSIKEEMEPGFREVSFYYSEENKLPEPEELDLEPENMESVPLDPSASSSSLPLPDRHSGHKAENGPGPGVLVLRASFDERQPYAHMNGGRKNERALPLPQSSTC"}, "STK17B (human)": {"biological_target": "STK17B (human) (UniProt O94768)"}, "[1]": {"system": "FLT3 (human), P36888 [N841I]"}, "AKT1 (human)": {"biological_target": "AKT1 (human) (UniProt P31749)"}, "CDC42BPB (human)": {"biological_target": "CDC42BPB (human) (UniProt Q9Y5S2)"}, "MST4 (human)": {"biological_target": "MST4 (human) (UniProt Q9P289)", "sequence (Q9P289 whole entry, looked up)": "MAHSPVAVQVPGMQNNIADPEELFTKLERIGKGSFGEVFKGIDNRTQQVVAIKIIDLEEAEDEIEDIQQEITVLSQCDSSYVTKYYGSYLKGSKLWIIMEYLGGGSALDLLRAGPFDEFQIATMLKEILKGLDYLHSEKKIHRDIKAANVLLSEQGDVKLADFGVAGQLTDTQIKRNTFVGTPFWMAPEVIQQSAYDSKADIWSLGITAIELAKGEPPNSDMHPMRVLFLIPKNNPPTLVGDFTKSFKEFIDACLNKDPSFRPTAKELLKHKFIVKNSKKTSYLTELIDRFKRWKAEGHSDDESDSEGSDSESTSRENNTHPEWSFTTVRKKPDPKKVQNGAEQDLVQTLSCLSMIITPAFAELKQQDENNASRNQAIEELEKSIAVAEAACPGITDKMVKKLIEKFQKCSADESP"}, "CDC2L2 (human)": {"biological_target": "CDC2L2 (human) (UniProt Q9UQ88)"}, "MAP3K4 (human)": {"biological_target": "MAP3K4 (human) (UniProt Q9Y6R4)"}, "BRSK2 (human)": {"biological_target": "BRSK2 (human) (UniProt Q8IWQ3)"}, "GRK7 (human)": {"biological_target": "GRK7 (human) (UniProt Q8WTQ7)", "sequence (Q8WTQ7 whole entry, looked up)": "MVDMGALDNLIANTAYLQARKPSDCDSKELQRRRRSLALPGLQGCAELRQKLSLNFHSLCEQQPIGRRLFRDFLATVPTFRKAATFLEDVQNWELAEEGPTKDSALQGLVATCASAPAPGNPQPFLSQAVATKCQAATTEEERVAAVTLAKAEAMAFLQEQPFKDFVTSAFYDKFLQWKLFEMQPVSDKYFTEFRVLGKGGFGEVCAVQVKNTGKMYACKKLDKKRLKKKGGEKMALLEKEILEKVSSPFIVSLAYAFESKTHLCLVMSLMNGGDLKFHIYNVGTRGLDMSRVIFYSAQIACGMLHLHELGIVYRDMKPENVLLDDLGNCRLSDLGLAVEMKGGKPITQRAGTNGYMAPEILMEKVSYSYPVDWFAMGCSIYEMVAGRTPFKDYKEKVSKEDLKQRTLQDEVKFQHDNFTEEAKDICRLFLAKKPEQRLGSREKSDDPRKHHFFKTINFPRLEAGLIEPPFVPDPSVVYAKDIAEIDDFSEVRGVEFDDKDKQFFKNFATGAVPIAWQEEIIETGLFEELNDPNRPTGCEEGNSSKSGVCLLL"}, "AURKA (human)": {"biological_target": "AURKA (human) (UniProt O14965)"}, "CHEK1 (human)": {"biological_target": "CHEK1 (human) (UniProt O14757)"}, "[2]": {"biological_target": "TYK2 JH2 pseudokinase (human) (UniProt P29597)"}, "EIF2AK2 (human)": {"biological_target": "EIF2AK2 (human) (UniProt P19525)"}, "MYO3B (human)": {"biological_target": "MYO3B (human) (UniProt Q8WXR4)"}, "MAP2K1 (human)": {"biological_target": "MAP2K1 (human) (UniProt Q02750)"}, "FLT1 (human)": {"biological_target": "FLT1 (human) (UniProt P17948)"}, "SBK1 (human)": {"biological_target": "SBK1 (human) (UniProt Q52WX2)"}, "CSNK1G1 (human)": {"biological_target": "CSNK1G1 (human) (UniProt Q9HCP0)"}, "SIK3 (human)": {"biological_target": "SIK3 (human) (UniProt Q9Y2K2)"}, "PTK6 (human)": {"biological_target": "PTK6 (human) (UniProt Q13882)"}, "MAP4K4 (human)": {"biological_target": "MAP4K4 (human) (UniProt O95819)"}, "MAP3K3 (human)": {"biological_target": "MAP3K3 (human) (UniProt Q99759)", "sequence (Q99759 whole entry, looked up)": "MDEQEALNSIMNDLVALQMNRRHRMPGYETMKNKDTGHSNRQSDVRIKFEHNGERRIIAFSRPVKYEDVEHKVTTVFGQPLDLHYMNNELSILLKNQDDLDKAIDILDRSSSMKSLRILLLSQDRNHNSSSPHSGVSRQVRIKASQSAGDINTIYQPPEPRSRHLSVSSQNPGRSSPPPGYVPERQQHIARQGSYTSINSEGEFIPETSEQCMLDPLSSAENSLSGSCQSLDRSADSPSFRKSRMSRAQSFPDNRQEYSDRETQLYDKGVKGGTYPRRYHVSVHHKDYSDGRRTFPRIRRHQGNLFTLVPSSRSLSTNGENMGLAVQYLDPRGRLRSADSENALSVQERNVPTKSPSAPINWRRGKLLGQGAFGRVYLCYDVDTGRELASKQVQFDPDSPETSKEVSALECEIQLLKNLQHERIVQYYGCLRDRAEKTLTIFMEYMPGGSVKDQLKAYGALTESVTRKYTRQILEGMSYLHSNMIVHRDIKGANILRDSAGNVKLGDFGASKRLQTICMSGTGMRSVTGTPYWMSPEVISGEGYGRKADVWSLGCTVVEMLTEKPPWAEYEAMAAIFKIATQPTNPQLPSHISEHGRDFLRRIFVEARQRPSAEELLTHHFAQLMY"}, "TAOK3 (human)": {"biological_target": "TAOK3 (human) (UniProt Q9H2K8)"}, "FLT4 (human)": {"biological_target": "FLT4 (human) (UniProt P35916)"}, "MKNK1 (human)": {"biological_target": "MKNK1 (human) (UniProt Q9BUB5)"}, "EPHB6 (human)": {"biological_target": "EPHB6 (human) (UniProt O15197)"}, "CDKL3 (human)": {"biological_target": "CDKL3 (human) (UniProt Q8IVW4)"}, "DDR2 (human)": {"biological_target": "DDR2 (human) (UniProt Q16832)"}, "HIPK1 (human)": {"biological_target": "HIPK1 (human) (UniProt Q86Z02)"}, "STK32C (human)": {"biological_target": "STK32C (human) (UniProt Q86UX6)"}, "EPHA6 (human)": {"biological_target": "EPHA6 (human) (UniProt Q9UF33)"}, "EPHA4 (human)": {"biological_target": "EPHA4 (human) (UniProt P54764)"}, "RPS6KA2 KD1 (human)": {"biological_target": "RPS6KA2 KD1 (human) (UniProt Q15349)"}, "HUNK (human)": {"biological_target": "HUNK (human) (UniProt P57058)"}, "MAP3K7 (human)": {"biological_target": "MAP3K7 (human) (UniProt O43318)"}}}
{"smiles": "CNC(=O)c1cc(Oc2ccc(NC(=O)Nc3ccc(Cl)c(C(F)(F)F)c3)cc2)ccn1", "values": [{"measurement": "per cent of control", "setting": "EIF2AK1 (human)", "value": 100, "unit": "%"}, {"measurement": "per cent of control", "setting": "BLK (human)", "value": 28, "unit": "%"}, {"measurement": "per cent of control", "setting": "ERBB4 (human)", "value": 92, "unit": "%"}, {"measurement": "residual activity", "setting": "PKN3 (M.tuberculosis)", "value": 100, "unit": "%"}, {"measurement": "per cent of control", "setting": "MAP3K10 (human)", "value": 85, "unit": "%"}, {"measurement": "per cent of control", "setting": "IGF1R (human)", "value": 100, "unit": "%"}, {"measurement": "per cent of control", "setting": "STK17B (human)", "value": 66, "unit": "%"}, {"measurement": "per cent of control", "setting": "[1]", "value": 0, "unit": "%"}, {"measurement": "per cent of control", "setting": "AKT1 (human)", "value": 100, "unit": "%"}, {"measurement": "per cent of control", "setting": "CDC42BPB (human)", "value": 100, "unit": "%"}, {"measurement": "per cent of control", "setting": "MST4 (human)", "value": 99, "unit": "%"}, {"measurement": "per cent of control", "setting": "CDC2L2 (human)", "value": 77, "unit": "%"}, {"measurement": "per cent of control", "setting": "MAP3K4 (human)", "value": 94, "unit": "%"}, {"measurement": "per cent of control", "setting": "BRSK2 (human)", "value": 98, "unit": "%"}, {"measurement": "per cent of control", "setting": "GRK7 (human)", "value": 100, "unit": "%"}, {"measurement": "per cent of control", "setting": "AURKA (human)", "value": 83, "unit": "%"}, {"measurement": "per cent of control", "setting": "CHEK1 (human)", "value": 49, "unit": "%"}, {"measurement": "per cent of control", "setting": "[2]", "value": 93, "unit": "%"}, {"measurement": "per cent of control", "setting": "EIF2AK2 (human)", "value": 74, "unit": "%"}, {"measurement": "per cent of control", "setting": "MYO3B (human)", "value": 38, "unit": "%"}, {"measurement": "per cent of control", "setting": "MAP2K1 (human)", "value": 95, "unit": "%"}, {"measurement": "per cent of control", "setting": "FLT1 (human)", "value": 0.7, "unit": "%"}, {"measurement": "per cent of control", "setting": "SBK1 (human)", "value": 100, "unit": "%"}, {"measurement": "per cent of control", "setting": "CSNK1G1 (human)", "value": 100, "unit": "%"}, {"measurement": "per cent of control", "setting": "SIK3 (human)", "value": 100, "unit": "%"}, {"measurement": "per cent of control", "setting": "PTK6 (human)", "value": 93, "unit": "%"}, {"measurement": "per cent of control", "setting": "MAP4K4 (human)", "value": 8.7, "unit": "%"}, {"measurement": "per cent of control", "setting": "MAP3K3 (human)", "value": 97, "unit": "%"}, {"measurement": "per cent of control", "setting": "TAOK3 (human)", "value": 0.65, "unit": "%"}, {"measurement": "per cent of control", "setting": "FLT4 (human)", "value": 0, "unit": "%"}, {"measurement": "per cent of control", "setting": "MKNK1 (human)", "value": 1.6, "unit": "%"}, {"measurement": "per cent of control", "setting": "EPHB6 (human)", "value": 2.4, "unit": "%"}, {"measurement": "per cent of control", "setting": "CDKL3 (human)", "value": 0.35, "unit": "%"}, {"measurement": "per cent of control", "setting": "DDR2 (human)", "value": 13, "unit": "%"}, {"measurement": "per cent of control", "setting": "HIPK1 (human)", "value": 17, "unit": "%"}, {"measurement": "per cent of control", "setting": "STK32C (human)", "value": 72, "unit": "%"}, {"measurement": "per cent of control", "setting": "EPHA6 (human)", "value": 1.6, "unit": "%"}, {"measurement": "per cent of control", "setting": "EPHA4 (human)", "value": 15, "unit": "%"}, {"measurement": "per cent of control", "setting": "RPS6KA2 KD1 (human)", "value": 61, "unit": "%"}, {"measurement": "per cent of control", "setting": "HUNK (human)", "value": 90, "unit": "%"}, {"measurement": "per cent of control", "setting": "MAP3K7 (human)", "value": 2.6, "unit": "%"}]}
{"smiles": "CNC(=O)c1cc(Oc2ccc(NC(=O)Nc3ccc(Cl)c(C(F)(F)F)c3)cc2)cc[n+]1[O-]", "values": [{"measurement": "per cent of control", "setting": "EIF2AK1 (human)", "value": 100, "unit": "%"}, {"measurement": "per cent of control", "setting": "BLK (human)", "value": 11, "unit": "%"}, {"measurement": "per cent of control", "setting": "ERBB4 (human)", "value": 100, "unit": "%"}, {"measurement": "residual activity", "setting": "PKN3 (M.tuberculosis)", "value": 100, "unit": "%"}, {"measurement": "per cent of control", "setting": "MAP3K10 (human)", "value": 88, "unit": "%"}, {"measurement": "per cent of control", "setting": "IGF1R (human)", "value": 97, "unit": "%"}, {"measurement": "per cent of control", "setting": "STK17B (human)", "value": 62, "unit": "%"}, {"measurement": "per cent of control", "setting": "[1]", "value": 0, "unit": "%"}, {"measurement": "per cent of control", "setting": "AKT1 (human)", "value": 100, "unit": "%"}, {"measurement": "per cent of control", "setting": "CDC42BPB (human)", "value": 97, "unit": "%"}, {"measurement": "per cent of control", "setting": "MST4 (human)", "value": 49, "unit": "%"}, {"measurement": "per cent of control", "setting": "CDC2L2 (human)", "value": 99, "unit": "%"}, {"measurement": "per cent of control", "setting": "MAP3K4 (human)", "value": 93, "unit": "%"}, {"measurement": "per cent of control", "setting": "BRSK2 (human)", "value": 100, "unit": "%"}, {"measurement": "per cent of control", "setting": "GRK7 (human)", "value": 100, "unit": "%"}, {"measurement": "per cent of control", "setting": "AURKA (human)", "value": 26, "unit": "%"}, {"measurement": "per cent of control", "setting": "CHEK1 (human)", "value": 79, "unit": "%"}, {"measurement": "per cent of control", "setting": "[2]", "value": 99, "unit": "%"}, {"measurement": "per cent of control", "setting": "EIF2AK2 (human)", "value": 58, "unit": "%"}, {"measurement": "per cent of control", "setting": "MYO3B (human)", "value": 17, "unit": "%"}, {"measurement": "per cent of control", "setting": "MAP2K1 (human)", "value": 80, "unit": "%"}, {"measurement": "per cent of control", "setting": "FLT1 (human)", "value": 0.65, "unit": "%"}, {"measurement": "per cent of control", "setting": "SBK1 (human)", "value": 100, "unit": "%"}, {"measurement": "per cent of control", "setting": "CSNK1G1 (human)", "value": 96, "unit": "%"}, {"measurement": "per cent of control", "setting": "SIK3 (human)", "value": 100, "unit": "%"}, {"measurement": "per cent of control", "setting": "PTK6 (human)", "value": 100, "unit": "%"}, {"measurement": "per cent of control", "setting": "MAP4K4 (human)", "value": 0.5, "unit": "%"}, {"measurement": "per cent of control", "setting": "MAP3K3 (human)", "value": 96, "unit": "%"}, {"measurement": "per cent of control", "setting": "TAOK3 (human)", "value": 0.4, "unit": "%"}, {"measurement": "per cent of control", "setting": "FLT4 (human)", "value": 0, "unit": "%"}, {"measurement": "per cent of control", "setting": "MKNK1 (human)", "value": 1, "unit": "%"}, {"measurement": "per cent of control", "setting": "EPHB6 (human)", "value": 1.8, "unit": "%"}, {"measurement": "per cent of control", "setting": "CDKL3 (human)", "value": 0.3, "unit": "%"}, {"measurement": "per cent of control", "setting": "DDR2 (human)", "value": 19, "unit": "%"}, {"measurement": "per cent of control", "setting": "HIPK1 (human)", "value": 44, "unit": "%"}, {"measurement": "per cent of control", "setting": "STK32C (human)", "value": 87, "unit": "%"}, {"measurement": "per cent of control", "setting": "EPHA6 (human)", "value": 6.6, "unit": "%"}, {"measurement": "per cent of control", "setting": "EPHA4 (human)", "value": 13, "unit": "%"}, {"measurement": "per cent of control", "setting": "RPS6KA2 KD1 (human)", "value": 43, "unit": "%"}, {"measurement": "per cent of control", "setting": "HUNK (human)", "value": 74, "unit": "%"}, {"measurement": "per cent of control", "setting": "MAP3K7 (human)", "value": 2.9, "unit": "%"}]}
